One may read the pest or weed control as how far the test organism was held down. Low readings indicate a weak effect, high ones a strong effect.

Assay [1] concerns Barnyard grass (BG). In words: Pre-emergence herbicide test. It counts as in vivo. The conditions noted are these: Echinochloa crus-galli, 336 h, two weeks after treatment. The method, boiled down: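 Greenhouse pre-emergence spray test: pots seeded one day before treatment received compound at rates of 8 or 4 lb/acre (38 gal/acre). Visual injury/control scores for Echinochloa crus-galli taken at two weeks, with watering by sub-irrigation only.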

Assay [2] relates to Barnyard grass (BG). Description: Post-emergence herbicide test. Particulars: Echinochloa crus-galli, 336 h, two weeks after treatment. Format: in vivo. The method in brief:
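Greenhouse pot-grown barnyard grass seedlings sprayed post-emergence at 8 lbs active compound per acre (some at 4 lbs/acre) in 38 gallons per acre, then sub-irrigated. Injury or control rated visually two weeks after treatment.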

For the next assay, the system named is Bean (BN). Description: Post-emergence herbicide test. It counts as in vivo, Phaseolus vulgaris var. Black Valentine. The conditions noted are these: Phaseolus vulgaris, post-emergence, 336 h, two weeks after treatment. The method, boiled down:
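Bean seedlings (Phaseolus vulgaris var. Black Valentine) were grown in potting soil in 3' pots until the primary leaves expanded. They were then sprayed under a hood with a removable belt and fixed nozzle, using 50 ml formulations. Afterward they were returned to the greenhouse and watered only by sub-irrigation. Percent control was judged visually two weeks after treatment.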

A further assay deals with Turnip (TP). Description: Post-emergence herbicide test. Format: in vivo, Brassica sp. The conditions noted are these: Brassica rapa, post-emergence, 336 h, two weeks after treatment. The method in brief: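 A greenhouse post-emergence herbicide test on turnip. Seeds were sown on the surface of potting soil in 3' plastic pots, lightly covered with screened soil and watered from below. Planting was timed so seedlings had 1 or 2 true leaves above the cotyledons at spraying, done in a hood with a fixed nozzle. Control or injury was scored by eye after two weeks.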

Another assay concerns Crabgrass (CG). In words: Post-emergence herbicide test. The conditions noted are these: Digitaria sanguinalis, post-emergence, 336 h, two weeks after treatment. It counts as in vivo, Digitaria sanquinalis. The method in brief:
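Crabgrass (Digitaria sanquinalis) was surface seeded individually in 3' plastic pots of potting soil, covered with screened soil, and watered by sub-irrigation in greenhouse trays. Planting was staggered so seedlings reached the target stage together. Post-emergence sprays were applied in a hood with a removable belt and fixed nozzle, and control was visually rated two weeks after treatment.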

A further assay relates to Corn (CN). Description: Pre-emergence herbicide test. It counts as in vivo. Particulars: Zea mays, 336 h, two weeks after treatment. The method, boiled down:
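Visual injury/control ratings were made 2 weeks post-spray on corn pots seeded (4 seeds, seed-diameter depth) the day before treatment. Application was a belt-hood spray of 38 gal/acre delivering 8 lbs active per acre, with a 4 lbs/acre rate also formulated. Watering was by sub-irrigation throughout.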

On to `CNC(=O)Nc1nnc(C(F)(F)F)s1` [Example 1, 1-Methyl-3-[5-Trifluoromethyl-2-(1,3,4-Thiadiazolyl)] Urea], for which the pest or weed control at 4483.4 g/ha came out at 90% in the assay with Barnyard grass (BG) [1] (4 lb/acre); 100% with Barnyard grass (BG) [2] (4 lb/acre); 100% in the assay on Bean (BN) (4 lb/acre); 100% in the assay with Turnip (TP) (4 lb/acre); 90% in the assay with Crabgrass (CG) (4 lb/acre); 30% with Corn (CN) (4 lb/acre). For the same compound, the pest or weed control at 8966.8 g/ha with Barnyard grass (BG) [1] (8 lb/acre) turned out to be 90%; in the assay with Barnyard grass (BG) [2] (8 lb/acre), 100%; in the assay on Bean (BN) (8 lb/acre) it was 100%; in the assay on Turnip (TP) (8 lb/acre), 100%; in the assay on Crabgrass (CG) (8 lb/acre), 100%; in the assay on Corn (CN) (8 lb/acre), 90%. Moreover, the pest or weed control at 2241.7 g/ha in the assay on Barnyard grass (BG) [2] (2 lb/acre) came out at 70%; with Bean (BN) (2 lb/acre), 100%; in the assay with Turnip (TP) (2 lb/acre) it was 80%. The pest or weed control in the assay with Crabgrass (CG) (2 lb/acre) worked out at 60%.

The record behind these values is patent US4175081A, “5-Substituted thiadiazole ureas” (priority 1977, dated 1979).
